Experimental findings from patent publication US11613533B2, “Compounds useful for inhibiting RET kinase” (Eli Lilly and Company, priority 2020, dated 2023) are described below.

Each structure is given as a SMILES string. Changes are numbered by the printed parent chain. Bounds are passed on as bounds.

The target in assay [1] is T1, KIF5B-RET mutant form V804M in HEK293 cells (Homo sapiens, UniProt P07949, V804M).
T1 construct: expressed in transfected cells; host or cells: HEK293; the other entry of the earlier key: KIF5B (P33176, Kinesin-1 heavy chain)
T1 sequence (P07949 713-1063 V804M limits assumed): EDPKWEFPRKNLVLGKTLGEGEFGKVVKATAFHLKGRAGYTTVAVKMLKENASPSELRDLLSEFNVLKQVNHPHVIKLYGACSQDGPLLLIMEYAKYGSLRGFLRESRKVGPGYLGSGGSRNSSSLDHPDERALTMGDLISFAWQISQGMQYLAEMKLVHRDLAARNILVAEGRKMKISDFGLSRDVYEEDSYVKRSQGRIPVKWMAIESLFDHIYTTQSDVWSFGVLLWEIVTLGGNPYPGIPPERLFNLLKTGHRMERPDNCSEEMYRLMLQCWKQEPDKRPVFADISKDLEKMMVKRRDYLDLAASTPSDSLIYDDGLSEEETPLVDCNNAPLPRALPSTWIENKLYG
Kind of assay: RET cell assay (In-Cell Western, phospho-RET Y1062), V804M. Format: cell-based. As to conditions: HEK293, doxycycline-induced KIF5B-RET V804M, 1 hr compound treatment; read-out: EC50, inhibition of intracellular autophosphorylation of RET at tyrosine 1062, V804M cells. As for the experimental part:
(§1) Compounds of formulas (I), (II), and (III) are screened for their ability to inhibit the intracellular autophosphorylation of RET at tyrosine 1062 as detected by In-Cell Western. HEK293 cells containing a doxycycline-inducible plasmid for inducible expression of KIF5B-RET WT and RET mutant forms V804M and G810S are seeded at 25,000 cells/well into black poly-D-lysine pre-coated 384-well plates (Corning, Catalog No. 356697). Expression of KIF5B-RET is induced with doxycycline at 1 μg/mL and cells are incubated at 37° C. overnight. Compounds are prepared in a threefold serial dilution in DMSO before further diluting 1:100 in media prior to the addition to the cells (0.1% final DMSO concentration). Compound treatment is performed for 1 hr at 37° C. followed by fixation of cells with 4% formaldehyde for 20 min at RT and cell permeabilisation with ice-cold MeOH for 10 min at RT. Cells are incubated with Intercept® blocking buffer (Li—COR, Catalogue No. 927-70010) for 1 hr at RT. Incubation with primary antibodies against human phospho-RET (Y1062) (R&D, Catalogue No. AF5009, 1/250 dilution) and human glyceraldehyde-3-phosphate dehydrogenase (clone 6C5, Merck, Catalog No. MAB374, 1/1000 dilution) are performed overnight at 4° C. Incubation with secondary antibodies IRDye® 800CW goat anti-rabbit IgG (Li—COR, Catalogue No. 926-32211, 1/1000 dilution) and IRDye® 680CW goat anti-mouse IgG (Li—COR, Catalogue No. 926-68070, 1/1000 dilution) are performed for 1 hr at RT. All antibody dilutions are done in Intercept® blocking buffer containing 0.05% Tween20. After washing cells with PBS-T (Cell Signaling technology, Catalogue No. 9809), the images are acquired on a Li—COR Odyssey LCx at 700 and 800 nm. Percent of DMSO control is calculated with 100% signal referring to control conditions containing no compound (0.4% DMSO only) and 0% signal represented by conditions containing control compound. The % of DMSO control values are fit to a 4 parameter logistic curve, and the determined EC50 value is defined as the estimated concentration of inhibitor at the inflexion point of the fitted curve.

Assay [2] deals with T2, KIF5B-RET mutant form G810S in HEK293 cells (Homo sapiens, UniProt P07949, G810S).
T2 construct: expressed in transfected cells; host or cells: HEK293; the other entry of the earlier key: KIF5B (P33176, Kinesin-1 heavy chain)
T2 sequence (P07949 713-1063 G810S limits assumed): T1 sequence (P07949 713-1063 V804M limits assumed) with M92V, G98S
Description: RET cell assay (In-Cell Western, phospho-RET Y1062), G810S. Format: cell-based. The settings on record: HEK293, doxycycline-induced KIF5B-RET G810S, 1 hr compound treatment; read-out: EC50, inhibition of intracellular autophosphorylation of RET at tyrosine 1062, G810S cells. As for the experimental part: as §1

One may read the EC50 as the concentration at which the effect is half-maximal.

Consider `CC(C(=O)Nc1cc(CC(C)(C)C)no1)c1ccc(-c2nn(C(C)C)c(N)c2C(N)=O)cc1` (single isomer, unassigned; isomer 1) [Example 1, 5-Amino-3-[4-(1-[[3-(2,2-dimethylpropyl)-1,2-oxazol-5-yl]carbamoyl]ethyl)phenyl]-1-isopropylpyrazole-4-carboxamide, Isomer 1], for which the 50% effective concentration (EC50) in assay [1] and in assay [2] was less than 100 nM each time.

Take `CCC(C)(C)c1cc(NC(=O)C(C)c2ccc(-c3nn(C(C)C)c(N)c3C(N)=O)cc2)on1` (single isomer, unassigned; isomer 1) [Example 15, 5-Amino-1-isopropyl-3-[4-(1-[[3-(2-methylbutan-2-yl)-1,2-oxazol-5-yl]carbamoyl]ethyl)phenyl]pyrazole-4-carboxamide, Isomer 1]: the EC50 in assay [1] and in assay [2] was less than 100 nM in each case.

Regarding `CC(C(=O)Nc1cc(C(C)(C)C(F)(F)F)no1)c1ccc(-c2nn(C(C)C)c(N)c2C(N)=O)cc1` (single isomer, unassigned; isomer 1) [Example 17, 5-Amino-1-isopropyl-3-[4-(1-[[3-(1,1,1-trifluoro-2-methylpropan-2-yl)-1,2-oxazol-5-yl]carbamoyl]ethyl)phenyl]pyrazole-4-carboxamide, Isomer 1], the half-maximal effective concentration (EC50) in assay [1] and in assay [2] was less than 100 nM in each case.

As for `CC(C(=O)Nc1cc(C2(C)CC2)no1)c1ccc(-c2nn(C(C)C)c(N)c2C(N)=O)cc1` (single isomer, unassigned; isomer 1) [Example 35, 5-Amino-1-isopropyl-3-[4-(1-[[3-(1-methylcyclopropyl)-1,2-oxazol-5-yl]carbamoyl]ethyl)phenyl]pyrazole-4-carboxamide, Isomer 1], the EC50 in assay [1] and in assay [2] was less than 100 nM in each case.

`CC(C(=O)Nc1cc(-c2ccc(Cl)cc2Cl)no1)c1ccc(-c2nn(C(C)C)c(N)c2C(N)=O)cc1` (single isomer, unassigned; isomer 1) [Example 45, 5-Amino-3-[4-(1-[[3-(2,4-dichlorophenyl)-1,2-oxazol-5-yl]carbamoyl]ethyl)phenyl]-1-isopropylpyrazole-4-carboxamide, Isomer 1]: the EC50 in assay [1] and in assay [2] was less than 100 nM each time.

`CC(C(=O)Nc1cc(C(C)(C)C(F)(F)F)on1)c1ccc(-c2nn(C(C)C)c(N)c2C(N)=O)cc1` (single isomer, unassigned; isomer 1) [Example 81, 5-Amino-1-isopropyl-3-[4-(1-[[5-(1,1,1-trifluoro-2-methylpropan-2-yl)-1,2-oxazol-3-yl]carbamoyl]ethyl)phenyl]pyrazole-4-carboxamide, Isomer 1]: the EC50 in assay [1] and in assay [2] was less than 100 nM each time.

Turning to `CC(C(=O)Nc1cc(C2CC(C)(C)C2)no1)c1ccc(-c2nn(C(C)C)c(N)c2C(N)=O)cc1` (single isomer, unassigned; isomer 1) [Example 98, 5-Amino-3-[4-[2-[[3-(3,3-dimethylcyclobutyl)isoxazol-5-yl]amino]-1-methyl-2-oxo-ethyl]phenyl]-1-isopropyl-pyrazole-4-carboxamide, Isomer 1], the EC50 in assay [1] and in assay [2] was less than 100 nM in each case.

Consider `CCC(C)(C)c1cc(NC(=O)C(C)c2ccc(-c3nn(C(C)C)c(N)c3C(N)=O)cc2)no1` (single isomer, unassigned; isomer 2) [Example 52, 5-Amino-1-isopropyl-3-[4-(1-[[5-(2-methylbutan-2-yl)-1,2-oxazol-3-yl]carbamoyl]ethyl)phenyl]pyrazole-4-carboxamide, Isomer 2], for which the half-maximal effective concentration (EC50) in assay [1] and in assay [2] was less than 100 nM in each case.

`CC(C(=O)Nc1cc(C(C)(C)C(F)(F)F)on1)c1ccc(-c2nn(C(C)C)c(N)c2C(N)=O)nc1` (single isomer, unassigned; isomer 2) [Example 64, 5-Amino-1-isopropyl-3-[5-(1-[[5-(1,1,1-trifluoro-yl)-1,2-oxazol-3-2-methylpropan-2-yl]carbamoyl]ethyl)pyridin-2-yl]pyrazole-4-carboxamide, Isomer 2]: the EC50 in assay [1] and in assay [2] was less than 100 nM each time.

For `CCC(C)(C)c1cc(NC(=O)C(C)c2ccc(-c3nn(C(C)C)c(N)c3C(N)=O)nc2)no1` (single isomer, unassigned; isomer 2) [Example 66, 5-Amino-1-isopropyl-3-[5-(1-[[5-(2-methylbutan-2-yl)-1,2-oxazol-3-yl]carbamoyl]ethyl)pyridin-2-yl]pyrazole-4-carboxamide, Isomer 2], the EC50 in assay [1] and in assay [2] was less than 100 nM throughout.

For the compound `CC(C(=O)Nc1cc(C(C)(C)CC(F)(F)F)on1)c1ccc(-c2nn(C(C)C)c(N)c2C(N)=O)nc1` (single isomer, unassigned; isomer 2) [Example 68, 5-Amino-1-isopropyl-3-(5-(1-oxo-1-((5-(4,4,4-trifluoro-2-methylbutan-2-yl)isoxazol-3-yl)amino)propan-2-yl)pyridin-2-yl)-1H-pyrazole-4-carboxamide, Isomer 2], the 50% effective concentration (EC50) in assay [1] and in assay [2] was less than 100 nM each time.

As to `CC(C(=O)Nc1cc(C(C)(C)C(C)(F)F)on1)c1ccc(-c2nn(C(C)C)c(N)c2C(N)=O)nc1` (single isomer, unassigned; isomer 2) [Example 70, 5-Amino-3-[5-(1-[[5-(3,3-difluoro-2-methylbutan-2-yl)-1,2-oxazol-3-yl]carbamoyl]ethyl)pyridin-2-yl]-1-isopropylpyrazole-4-carboxamide, Isomer 2], the concentration giving a half-maximal response (EC50) in assay [1] and in assay [2] was less than 100 nM throughout.

In the case of `CC(C(=O)Nc1cc(C(C)(C)C(C)(F)F)on1)c1ccc(-c2nn(C(C)C)c(N)c2C(N)=O)cc1` (single isomer, unassigned; isomer 2) [Example 76, 5-Amino-3-[4-(1-[[5-(3,3-difluoro-2-methylbutan-2-yl)-1,2-oxazol-3-yl]carbamoyl]ethyl)phenyl]-1-isopropylpyrazole-4-carboxamide, Isomer 2], the concentration giving a half-maximal response (EC50) in assay [1] and in assay [2] was less than 100 nM throughout.

For `CC(C(=O)Nc1cc(C(C)(C)C)sn1)c1ccc(-c2nn(C(C)C)c(N)c2C(N)=O)cc1` (single isomer, unassigned; isomer 2) [Example 80, 5-Amino-3-(4-[1-[(5-tert-butyl-1,2-thiazol-3-yl)carbamoyl]ethyl]phenyl)-1-isopropylpyrazole-4-carboxamide, isomer 2], the concentration for a half-maximal effect (EC50) in assay [1] and in assay [2] was less than 100 nM throughout.

With `CCC(C)(C)c1cc(NC(=O)C(C)c2ccc(-c3nn(C(C)C)c(N)c3C(N)=O)cn2)on1` (single isomer, unassigned; isomer 2) [Example 84, 5-Amino-1-isopropyl-3-[6-[2-[[3-(1,1-dimethylpropyl)isoxazol-5-yl]amino]-1-methyl-2-oxo-ethyl]-3-pyridyl]pyrazole-4-carboxamide, Isomer 2], the concentration for a half-maximal effect (EC50) in assay [1] and in assay [2] was less than 100 nM throughout.
